Test system: A549 cells
Test: In vitro cytotoxicity screening with median-effect (combination index) analysis of irinotecan and carboplatin
Assay type: cell-based
Details: single drug versus irinotecan plus carboplatin combination
Description: As shown, therapeutic agents A and B are tested individually and together at two different ratios for their ability to cause cell death or cell stasis. In these experiments cell death or stasis was assessed using the MTT (3-[4,5-dimethylthiazol-2-yl]-2,5-diphenyltetrazolium) assay described below. Briefly, the dye MTT is reduced by living cells, producing a measurable change in optical density that is correlated to cell viability.
Correlations between the concentration of therapeutic agents A and B, and the two different combination ratios (Y:Z and X:Y) are plotted against cytotoxicity. Cytotoxicity is calculated as a percentage of surviving cells based on the survival of untreated control cells. […] Once this correlation has been established, the cell survival or fraction affected (fa) is used as a surrogate for concentration in calculating the CI.
The Chou-Talalay median-effect method is preferred. The analysis utilizes an equation wherein the dose that causes a particular effect, fa, is given by: D=Dm[fa/(1−fa)]^1/m in which D is the dose of the drug used, fa is the fraction of cells affected by that dose, Dm is the dose for median effect signifying the potency and m is a coefficient representing the shape of the dose-effect curve (m is 1 for first order reactions). […]

SMILES | Concentration required to achieve a 90% cell kill on its own compared with the concentration required when combined at a non-antagonistic ratio
N.N.O=C([O-])C1(C(=O)[O-])CCC1.[Pt+2] [carboplatin] | significantly higher
CCc1c2c(nc3ccc(OC(=O)N4CCC(N5CCCCC5)CC4)cc13)-c1cc3c(c(=O)n1C2)COC(=O)[C@]3(O)CC [irinotecan] | significantly higher

From US20060228694A1, “Methods to individualize combination therapy” (priority 2003, published 2006)
